Residue numbers refer to the chain shown, from its start.
How the values were obtained:
Assay type in all cases: biochemical
[1] = target: Zea mays EPSPS variant WT-FS-E2 (102A 302S 391G 438R I208L) (Zea mays, UniProt O24566, E301S/E390G/G101A/I207L/V437R); assay: EPSPS substrate saturation kinetics, WT-FS-E2
Experimental: EPSPS activity was determined by quantifying the phosphate generated from the EPSPS reaction. Release of inorganic phosphate was coupled to reaction with 2-amino-6-mercapto-7-methylpurine ribonucleoside, catalyzed by purine-nucleoside phosphorylase (M R Webb, Proc. Natl. Acad. Sci. 89:4884-4887, 1992). The absorbance change that occurs was monitored at 360 nm, where the extinction is 11,200 M^−1 cm^−1, with a Spectramax plate reader (Molecular Devices). To determine kinetic parameters, the varied substrate was present at seven concentrations (the eighth being the blank, containing no substrate) ranging from 4 to 400 uM and the unvaried substrate present at saturation. […] Reactions were monitored with a Spectramax plate reader. […] KI was then calculated from the following form of the Michaelis-Menten equation for competitive inhibition: KI=KM[I]/(KM app−KM) KM approximates the dissociation constant of the enzyme-substrate complex while kcat is the rate of conversion of substrate to product when the substrate concentration is saturating. kcat/KM is a widely accepted parameter for catalytic efficiency when substrate concentration is low (˜KM). […] The parameter kcat/KM×KI is used to quantify both catalytic efficiency and insensitivity and thus the overall fitness of the enzyme. […]

[2] = target: T1, Zea mays EPSPS variant Zm-H6 (868-H6) with V87T (H6-V87T) (Zea mays, UniProt O24566, A1R/A3W/A415G/A71Q/D401G/E301S/E390G/G101A/I207L/K83R/L97C/T278A/T360S/T440Q/V437R/V86T); assay: Rapid two-rate method for (kcat/KM)*KI, H6-V87T; conditions: [E] 0.07 uM, [Gly] 1000 uM
T1 construct: 868-H6 plus V87T; E. coli BL21(DE3), Ni-NTA purified
T1 sequence (O24566 with tags, fused parts or gaps A1R/A3W/A71Q/K83R/V86T/L97C/G101A/I207L/T278A/E301S/T360S/E390G/D401G/A415G/V437R/T440Q): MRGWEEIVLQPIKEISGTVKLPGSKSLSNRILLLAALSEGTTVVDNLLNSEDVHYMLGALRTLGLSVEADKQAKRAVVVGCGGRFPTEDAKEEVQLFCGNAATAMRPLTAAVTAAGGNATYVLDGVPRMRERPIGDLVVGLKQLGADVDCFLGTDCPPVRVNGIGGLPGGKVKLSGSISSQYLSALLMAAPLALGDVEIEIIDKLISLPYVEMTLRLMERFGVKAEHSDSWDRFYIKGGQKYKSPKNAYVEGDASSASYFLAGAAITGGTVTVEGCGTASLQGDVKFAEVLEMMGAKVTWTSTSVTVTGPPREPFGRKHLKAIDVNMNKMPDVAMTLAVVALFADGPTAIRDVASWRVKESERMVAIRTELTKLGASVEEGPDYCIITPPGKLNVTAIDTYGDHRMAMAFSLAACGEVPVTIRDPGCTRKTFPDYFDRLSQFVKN
Source text: (§1) There are several practical considerations for accurately estimating (kcat/KM)*KI with the rapid method. […] 2) The inhibitor concentration must be adjusted so as to obtain a degree of inhibition that minimally amplifies the error in the term v0-vi in Equation 3. If inhibition is too little, v0-vi will be small, and the error in the multiplier vi×v0/(v0-vi) will be large. […] 3) Substrate concentration should be set at the approximate KM of the parental variant(s), subject to the sensitivity of the assay. High substrate concentration obscures sensitivity to the inhibitor and reduces stringency for capturing improvements in KM. Depending on the necessity for speed, there exists opportunity for customizing enzyme and inhibitor concentrations. […] The rapid method was repeated for those and obtained data that correlated better with data obtained by substrate saturation analysis. For screening purposes however, that correlation step is not necessary. Conditions can be set so that variants with a pre-determined minimal fitness level are accurately quantified.
(§2) In Table 15, parameters above the heavy line for the rapid method were obtained under standard conditions. For variants shown below the heavy line, the rapid analysis was repeated with enzyme or glyphosate concentrations adjusted as needed to generate sufficient signal within the limits for linear initial rates.

[3] = target: T2, Zea mays EPSPS variant Zm-H6 (868-H6) with R61Y (H6-R61Y) (Zea mays, UniProt O24566, A1R/A3W/A415G/A71Q/D401G/E301S/E390G/G101A/I207L/K83R/L97C/R60Y/T278A/T360S/T440Q/V437R); assay: Rapid two-rate method for (kcat/KM)*KI, H6-R61Y; conditions: [E] 0.07 uM, [Gly] 1000 uM
T2 construct: 868-H6 plus R61Y; E. coli BL21(DE3), Ni-NTA purified
T2 sequence (O24566 with tags, fused parts or gaps A1R/A3W/R60Y/A71Q/K83R/L97C/G101A/I207L/T278A/E301S/T360S/E390G/D401G/A415G/V437R/T440Q): T1 sequence (O24566 with tags, fused parts or gaps A1R/A3W/A71Q/K83R/V86T/L97C/G101A/I207L/T278A/E301S/T360S/E390G/D401G/A415G/V437R/T440Q) with R61Y, T87V
Source text: as §1, §2

Zea mays EPSPS variant WT-FS-E2 (102A 302S 391G 438R I208L), sequence (O24566 entry or part of it G101A/I207L/E301S/E390G/V437R): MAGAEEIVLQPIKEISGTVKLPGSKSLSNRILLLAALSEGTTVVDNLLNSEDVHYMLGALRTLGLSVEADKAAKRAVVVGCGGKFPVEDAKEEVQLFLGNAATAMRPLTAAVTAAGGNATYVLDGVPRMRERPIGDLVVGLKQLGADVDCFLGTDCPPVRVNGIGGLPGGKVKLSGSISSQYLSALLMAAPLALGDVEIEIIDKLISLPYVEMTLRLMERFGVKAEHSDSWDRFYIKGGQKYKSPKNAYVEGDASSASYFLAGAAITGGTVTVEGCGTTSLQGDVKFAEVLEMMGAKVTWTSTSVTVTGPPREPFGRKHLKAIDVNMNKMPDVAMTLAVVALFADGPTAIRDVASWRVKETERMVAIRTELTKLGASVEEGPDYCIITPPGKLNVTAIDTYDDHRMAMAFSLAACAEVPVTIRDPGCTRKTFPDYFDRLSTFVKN

O=C(O)CNCP(=O)(O)O [glyphosate, N-phosphonomethylglycine]
Ki [1]: 663 µM | (kcat/KM)*KI ([1]; PEP as substrate, glyphosate as inhibitor): 4512 | (kcat/KM)*KI [2]: 3190 | (kcat/KM)*KI [3]: 1889
